# Results taken from US20050250752A1, “Cembranoids with chemopreventive activity” (priority 2002, published 2005).
# Assays:
# [1] = system: papillomas (mouse skin carcinogenesis induced by DMBA/TPA); assay: Two-stage mouse skin carcinogenesis model induced by DMBA/TPA; type: in vivo, mouse (female ICR); conditions: topical 85 nm 1 hour before TPA, ICR mice
# Protocol: In the two-stage mouse skin carcinogenesis model induced by DMBA/TPA, the animals (specific pathogen-free female ICR, 6 weeks old) were divided into 5 groups, 15 mice each. The back of each mouse was shaved with surgical clippers, and the mice were topically treated with DMBA (100 μg, 390 nmol) in acetone (0.1 ml) as an initiation treatment. For the positive control group, 1 week after initiation with DMBA, mice were promoted by the application with TPA (1 μg, 1.7 nmol) in acetone (0.1 ml) twice a week. The other four groups received a topical application of each of the sarcophine semi-synthetic derivatives (85 nm) 1 hour before application of the tumor promoter. The incidence of papillomas was observed weekly for 20 weeks. The percentage of mice bearing papillomas and the average number of papillomas per mouse were recorded.
# Raji cells = assay: Viability of treated Raji cells (Trypan Blue staining); type: cell-based
# Protocol: (§1) The inhibition of EBV-EA activation was assayed using Raji cells (virus non-producer type). The indicator cells (Raji, 1×10^6/ml) were incubated at 37° C. for 48 h in 1 ml of medium containing n-butyric acid (4 mmol), TPA(12-O-tetradecanoylphorbol 13-acetate)(32 pmol=20 ng in 2 μl DMSO) as inducer and various amounts of test compounds in 5 μl DMSO. Smears were made from the cell suspension, and the activated cells, which were stained by EBV-EA positive serum from nasopharygeal carcinoma patients were detected by an indirect immunofluorescence technique. For each compound, assays were performed in triplicate. The average EBV-EA induction of the test compounds was expressed as a relative ratio to the control experiment (100%), which was carried out only with n-butyric acid plus TPA. The viability of treated Raji cells was assayed by the Trypan Blue staining method.
# [2] = system: Epstein-Barr virus early antigen (EBV-EA) of Raji cells induced by tumor promoter (TPA); assay: Inhibition of EBV-EA activation induced by TPA in Raji cells; type: cell-based; conditions: for EBV-EA induction, percentage relative to the positive control value (100%): TPA 32 pmol, Raji cells, 48 h
# Protocol: as §1
# [3] = x 1000 mol ratio/TPA (32 nmol/mL)
smiles,measurement,setting,value
"C/C1=C\CCC2(C)OC2CC/C(C)=C/C=C(/[C@@](C)(O)CO)CC1 (stereo partly drawn) [Compound 11, 7,8-Epoxy-1,3,11-cembratriene-15R(α),16-diol]",Papilloma Bearer (%),[1]; week 1 of promotion,0.0%
same,Papillomas/mouse,[1]; week 1 of promotion,0.0
same,Papilloma Bearer (%),[1]; week 2 of promotion,0.0%
same,Papillomas/mouse,[1]; week 2 of promotion,0.0
same,Papilloma Bearer (%),[1]; week 3 of promotion,0.0%
same,Papillomas/mouse,[1]; week 3 of promotion,0.0
same,Papilloma Bearer (%),[1]; week 4 of promotion,0.0%
same,Papillomas/mouse,[1]; week 4 of promotion,0.0
same,Papilloma Bearer (%),[1]; week 5 of promotion,0.0%
same,Papillomas/mouse,[1]; week 5 of promotion,0.0
same,Papilloma Bearer (%),[1]; week 6 of promotion,0.0%
same,Papillomas/mouse,[1]; week 6 of promotion,0.0
same,Papilloma Bearer (%),[1]; week 7 of promotion,0.0%
same,Papillomas/mouse,[1]; week 7 of promotion,0.0
same,Papilloma Bearer (%),[1]; week 8 of promotion,13.3%
same,Papillomas/mouse,[1]; week 8 of promotion,0.6
same,Papilloma Bearer (%),[1]; week 9 of promotion,20.0%
same,Papillomas/mouse,[1]; week 9 of promotion,1.3
same,Papilloma Bearer (%),[1]; week 10 of promotion,26.6%
same,Papillomas/mouse,[1]; week 10 of promotion,1.6
same,Papilloma Bearer (%),[1]; week 11 of promotion,40.0%
same,Papillomas/mouse,[1]; week 11 of promotion,1.9
same,Papilloma Bearer (%),[1]; week 12 of promotion,46.6%
same,Papillomas/mouse,[1]; week 12 of promotion,2.1
same,Papilloma Bearer (%),[1]; week 13 of promotion,53.3%
same,Papillomas/mouse,[1]; week 13 of promotion,2.4
same,Papilloma Bearer (%),[1]; week 14 of promotion,53.3%
same,Papillomas/mouse,[1]; week 14 of promotion,2.7
same,Papilloma Bearer (%),[1]; week 15 of promotion,60.0%
same,Papillomas/mouse,[1]; week 15 of promotion,3.0
same,Papilloma Bearer (%),[1]; week 16 of promotion,73.3%
same,Papillomas/mouse,[1]; week 16 of promotion,3.4
same,Papilloma Bearer (%),[1]; week 17 of promotion,80.0%
same,Papillomas/mouse,[1]; week 17 of promotion,3.7
same,Papilloma Bearer (%),[1]; week 18 of promotion,80.0%
same,Papillomas/mouse,[1]; week 18 of promotion,4.2
same,Papilloma Bearer (%),[1]; week 19 of promotion,86.6%
same,Papillomas/mouse,[1]; week 19 of promotion,4.7
same,Papilloma Bearer (%),[1]; week 20 of promotion,86.6%
same,Papillomas/mouse,[1]; week 20 of promotion,5.1
"CC1=CC=C([C@@](C)(O)CO)C[C@@H](O)C(C)=CCCC2(C)OC2CC1 (stereo partly drawn) [Compound 13, 7,8-Epoxy-1,3,11-cembratriene-13R(α),15R(α),16-triol]",viability percentage of Raji cells (indicator cells),Raji cells; x 10 mol ratio/TPA,> 80%
same,viability percentage of Raji cells (indicator cells),Raji cells; x 100 mol ratio/TPA,> 80%
same,viability percentage of Raji cells (indicator cells),Raji cells; x 500 mol ratio/TPA,> 80%
same,viability percentage of Raji cells (indicator cells),Raji cells; [3],60%
same,"EBV-EA induction, percentage relative to the positive control value (100%)",[2]; x 10 mol ratio/TPA,92.6%
same,"EBV-EA induction, percentage relative to the positive control value (100%)",[2]; x 100 mol ratio/TPA,72.9%
same,"EBV-EA induction, percentage relative to the positive control value (100%)",[2]; x 500 mol ratio/TPA,54.2%
same,"EBV-EA induction, percentage relative to the positive control value (100%)",[2]; [3],5.7%
"C/C1=C\C=C(\C(C)(O)CO)CC(=O)/C(C)=C/CCC2(C)OC2CC1 (stereo not drawn) [Compound 14, 7,8-Epoxy-13-oxo-1,3,11-cembratriene-15R(α),16-diol]",viability percentage of Raji cells (indicator cells),Raji cells; x 10 mol ratio/TPA,> 80%
same,viability percentage of Raji cells (indicator cells),Raji cells; x 100 mol ratio/TPA,> 80%
same,viability percentage of Raji cells (indicator cells),Raji cells; x 500 mol ratio/TPA,> 80%
same,viability percentage of Raji cells (indicator cells),Raji cells; [3],60%
same,"EBV-EA induction, percentage relative to the positive control value (100%)",[2]; x 10 mol ratio/TPA,94.0%
same,"EBV-EA induction, percentage relative to the positive control value (100%)",[2]; x 100 mol ratio/TPA,75.1%
same,"EBV-EA induction, percentage relative to the positive control value (100%)",[2]; x 500 mol ratio/TPA,56.7%
same,"EBV-EA induction, percentage relative to the positive control value (100%)",[2]; [3],8.3%
"C/C1=C\C=C(\C(C)(O)CO)CC/C(C=O)=C/CCC2(C)OC2CC1 (stereo not drawn) [Compound 15, 7,8-Epoxy-1,3,11-cembratriene-15R(α),16-diol-20-carboxyaldehyde]",viability percentage of Raji cells (indicator cells),Raji cells; x 10 mol ratio/TPA,> 80%
same,viability percentage of Raji cells (indicator cells),Raji cells; x 100 mol ratio/TPA,> 80%
same,viability percentage of Raji cells (indicator cells),Raji cells; x 500 mol ratio/TPA,> 80%
same,viability percentage of Raji cells (indicator cells),Raji cells; [3],60%
same,"EBV-EA induction, percentage relative to the positive control value (100%)",[2]; x 10 mol ratio/TPA,90.6%
same,"EBV-EA induction, percentage relative to the positive control value (100%)",[2]; x 100 mol ratio/TPA,71.3%
same,"EBV-EA induction, percentage relative to the positive control value (100%)",[2]; x 500 mol ratio/TPA,52.4%
same,"EBV-EA induction, percentage relative to the positive control value (100%)",[2]; [3],3.6%
"C/C1=C\C=C(\C(C)C)[C@@H](O)C/C(C)=C/CC/C(C)=C/CC1 [Sarcophytol-A, sarcophytol A, reference compound]",viability percentage of Raji cells (indicator cells),Raji cells; x 10 mol ratio/TPA,> 80%
same,viability percentage of Raji cells (indicator cells),Raji cells; x 100 mol ratio/TPA,> 80%
same,viability percentage of Raji cells (indicator cells),Raji cells; x 500 mol ratio/TPA,> 80%
same,viability percentage of Raji cells (indicator cells),Raji cells; [3],50%
same,inhibition of EBV-EA activation induced by TPA,[2],88%
same,"EBV-EA induction, percentage relative to the positive control value (100%)",[2]; x 10 mol ratio/TPA,97.3%
same,"EBV-EA induction, percentage relative to the positive control value (100%)",[2]; x 100 mol ratio/TPA,79.1%
same,"EBV-EA induction, percentage relative to the positive control value (100%)",[2]; x 500 mol ratio/TPA,60.4%
same,"EBV-EA induction, percentage relative to the positive control value (100%)",[2]; [3],11.7%
